Values belong to the compound of their own block, whether it stands above or below them.
Key:
K562 = experiment: Inhibition of cancer cell proliferation, Alamar Blue assay (K562); assay type: cell-based; conditions: Homo sapiens, Table 2A, Alamar Blue, 72 hours exposure, read-out: IC50s K562
Protocol: (§1) The ability of the compounds described herein to kill or inhibit the proliferation of cancer cells was measured using the Alamar Blue assay using a 72 hours exposure. Results for different cancer cell lines are shown in, the Table 2 below (hematopoietic cell lines U937 and K562; MDA-MB-231 a breast cancer cell line; and NCI-H82 and Calu-6, two lung cancer cell lines): […]

MDA-MB-231 = experiment: Inhibition of cancer cell proliferation, Alamar Blue assay (MDA-MB-231); assay type: cell-based; conditions: Homo sapiens, Table 2A, Alamar Blue, 72 hours exposure, read-out: IC50s MDA-MB231
Protocol: as §1

[1] = Microsomal stability in human liver microsomes; assay type: in vitro ADME
From the text: Microsomal stability in vitro in different biologic media and species is ascertained when screening compounds to evaluate the rate at which a compound undergoes metabolism.

Calu-6 = experiment: Inhibition of cancer cell proliferation, Alamar Blue assay (Calu-6); assay type: cell-based; conditions: Homo sapiens, Table 2A, Alamar Blue, 72 hours exposure, read-out: IC50s Calu-6
Protocol: as §1

U937 = experiment: Inhibition of cancer cell proliferation, Alamar Blue assay (U937); assay type: cell-based; conditions: Homo sapiens, U-937; Table 2A; Alamar Blue, 72 hours exposure; read-out: IC50s U937
Protocol: as §1

Compound: CCOc1ccc(-c2nnc(SCC(=O)Nc3ccc(C)cc3C)[nH]2)cc1 [ACT-CK-097, N-(2,4-Dimethyl-phenyl)-2-[5-(4-ethoxy-phenyl)-4H-[1,2,4]triazol-3-ylsulfanyl]-acetamide]
IC50 (K562): 3.78 µM
IC50 (MDA-MB-231): 12 µM

Compound: CCOc1ccc(-c2nnc(SCC(=O)Nc3cc(C)nc(C)c3)[nH]2)cc1 [ACT-CK-151, N-(2,6-Dimethyl-pyridin-4-yl)-2-[5-(4-ethoxy-phenyl)-4H-[1,2,4]triazol-3-ylsulfanyl]-acetamide]
% Metabolized (mean) [1]: 91%

Compound: CCCOc1ccc(-c2nnc(SCC(=O)Nc3cc(OC)cc(OC)c3)[nH]2)cc1 [ACT-CK-119, N-(3,5-Dimethoxy-phenyl)-2-[5-(4-propoxy-phenyl)-4H-[1,2,4]triazol-3-ylsulfanyl]-acetamide]
IC50 (K562): 28 µM
IC50 (MDA-MB-231): 11 µM

Compound: CCOc1ccc(-c2nnc(SCC(=O)Nc3cc(C(F)(F)F)cc(C(F)(F)F)c3)[nH]2)cc1 [ACT-CK-152, N-(3,5-Bis-trifluoromethyl-phenyl)-2-[5-(4-ethoxy-phenyl)-4H-[1,2,4]triazol-3-ylsulfanyl]-acetamide]
% Metabolized (mean) [1]: 47%

Compound: CCOc1ccc(-c2nnc(SCC(=O)Nc3cc(C)cc(C)n3)[nH]2)cc1 [ACT-CK-147, N-(4,6-Dimethyl-pyridin-2-yl)-2-[5-(4-ethoxy-phenyl)-4H-[1,2,4]triazol-3-ylsulfanyl]-acetamide]
% Metabolized (mean) [1]: 91%
IC50 (Calu-6): 0.74 µM
IC50 (U937): 0.63 µM
IC50 (K562): 0.97 µM
IC50 (MDA-MB-231): 53 µM

Compound: COc1ccc(-c2nnc(SCC(=O)Nc3cccc(C)c3C)[nH]2)cc1 [ACT-CK-070, N-(2,3-Dimethyl-phenyl)-2-[5-(4-methoxy-phenyl)-4H-[1,2,4]triazol-3-ylsulfanyl]-acetamide]
IC50 (K562): 32.1 µM
IC50 (MDA-MB-231): 68.2 µM

Compound: COc1cccc(-c2nnc(SCC(=O)Nc3cc(C)cc(C)c3)[nH]2)c1 [ACT-CK-140, N-(3,5-Dimethyl-phenyl)-2-[5-(3-methoxy-phenyl)-4H-[1,2,4]triazol-3-ylsulfanyl]-acetamide]
IC50 (Calu-6): 41.6 µM
IC50 (U937): 20.4 µM
IC50 (K562): 41 µM
IC50 (MDA-MB-231): 79 µM

Compound: CCOc1ccc(-c2nnc(SCC(=O)Nc3cc(OC)ccc3OC)[nH]2)cc1 [ACT-CK-093, N-(2,5-Dimethoxy-phenyl)-2-[5-(4-ethoxy-phenyl)-4H-[1,2,4]triazol-3-ylsulfanyl]-acetamide]
IC50 (K562): 6.16 µM
IC50 (MDA-MB-231): 15.7 µM

Compound: Cc1cc(C)cc(NC(=O)CSc2nnc(-c3ccc(O)cc3)[nH]2)c1 [ACT-CK-146, N-(3,5-Dimethyl-phenyl)-2-[5-(4-hydroxy-phenyl)-4H-[1,2,4]triazol-3-ylsulfanyl]-acetamide]
% Metabolized (mean) [1]: 85%
IC50 (Calu-6): 54 µM
IC50 (U937): 34.1 µM
IC50 (K562): 31.7 µM
IC50 (MDA-MB-231): 91 µM

Compound: CCOc1ccc(-c2nnc(SCC(=O)Nc3ccc(OC)cc3C)[nH]2)cc1 [ACT-CK-087, 2-[5-(4-Ethoxy-phenyl)-4H-[1,2,4]triazol-3-ylsulfanyl]-N-(4-methoxy-2-methyl-phenyl)-acetamide]
IC50 (K562): 8.86 µM
IC50 (MDA-MB-231): 10.6 µM

Compound: COc1ccc(-c2nnc(SCC(=O)Nc3cc(C)ccc3F)[nH]2)cc1 [ACT-CK-085, N-(2-Fluoro-5-methyl-phenyl)-2-[5-(4-methoxy-phenyl)-4H-[1,2,4]triazol-3-ylsulfanyl]-acetamide]
IC50 (K562): 4.4 µM
IC50 (MDA-MB-231): 16.3 µM

Compound: CCCOc1ccc(-c2nnc(SCC(=O)Nc3cc(C)cc(C)c3)[nH]2)cc1 [ACT-CK-118, N-(3,5-Dimethyl-phenyl)-2-[5-(4-propoxy-phenyl)-4H-[1,2,4]triazol-3-ylsulfanyl]-acetamide]
IC50 (K562): 1.4 µM
IC50 (MDA-MB-231): 5.6 µM

The remaining lines, values ahead:

IC50 (K562): 28.1 µM
IC50 (MDA-MB-231): > 100 µM
Compound: COc1ccc(-c2nnc(SCC(=O)Nc3c(F)cccc3F)[nH]2)cc1 [ACT-CK-061, N-(2,6-Difluoro-phenyl)-2-[5-(4-methoxy-phenyl)-4H-[1,2,4]triazol-3-ylsulfanyl]-acetamide]

IC50 (K562): 14.6 µM
IC50 (MDA-MB-231): 21.2 µM
Compound: CCOc1ccc(-c2nnc(SCC(=O)Nc3cccc(C)c3C)[nH]2)cc1 [ACT-CK-076, N-(2,3-Dimethyl-phenyl)-2-[5-(4-ethoxy-phenyl)-4H-[1,2,4]triazol-3-ylsulfanyl]-acetamide]

% Metabolized (mean) [1]: 34%
Compound: CCOc1ccc(-c2nnc(SCC(=O)Nc3cc(C)cc(C)c3)[nH]2)cn1 [ACT-CK-143, N-(3,5-Dimethyl-phenyl)-2-[5-(6-ethoxy-pyridin-3-yl)-4H-[1,2,4]triazol-3-ylsulfanyl]-acetamide]

IC50 (Calu-6): 43 µM
IC50 (U937): 49 µM
IC50 (K562): 39 µM
IC50 (MDA-MB-231): 88 µM
Compound: CCOc1cccc(-c2nnc(SCC(=O)Nc3cc(C)cc(C)c3)[nH]2)c1 [ACT-CK-141, N-(3,5-Dimethyl-phenyl)-2-[5-(3-ethoxy-phenyl)-4H-[1,2,4]triazol-3-ylsulfanyl]-acetamide]

% Metabolized (mean) [1]: 69%
Compound: Cc1cc(C)cc(NC(=O)CSc2nnc(-c3ccc(OCCO)cc3)[nH]2)c1 [ACT-CK-155, N-(3,5-Dimethyl-phenyl)-2-{5-[4-(2-hydroxy-ethoxy)-phenyl]-4H-[1,2,4]triazol-3-ylsulfanyl}-acetamide]

IC50 (K562): 11.4 µM
IC50 (MDA-MB-231): 76.2 µM
Compound: COc1ccc(-c2nnc(SCC(=O)Nc3cc(F)ccc3C)[nH]2)cc1 [ACT-CK-066, N-(5-Fluoro-2-methyl-phenyl)-2-[5-(4-methoxy-phenyl)-4H-[1,2,4]triazol-3-ylsulfanyl]-acetamide]

IC50 (K562): 39.5 µM
IC50 (MDA-MB-231): 70.6 µM
Compound: CCOc1ccc(-c2nnc(SCC(=O)Nc3ccc(F)cc3F)[nH]2)cc1 [ACT-CK-064, N-(2,4-Difluoro-phenyl)-2-[5-(4-ethoxy-phenyl)-4H-[1,2,4]triazol-3-ylsulfanyl]-acetamide]

% Metabolized (mean) [1]: 99%
IC50 (Calu-6): 0.09 µM
IC50 (U937): 0.035 µM
IC50 (K562): 0.12 µM
IC50 (MDA-MB-231): 50 µM
Compound: CCOc1ccc(-c2nnc(SCC(=O)Nc3cc(C)cc(C)c3)[nH]2)cc1C [ACT-CK-142, N-(3,5-Dimethyl-phenyl)-2-[5-(4-ethoxy-3-methyl-phenyl)-4H-[1,2,4]triazol-3-ylsulfanyl]-acetamide]

IC50 (K562): 1.6 µM
IC50 (MDA-MB-231): 19.2 µM
Compound: CCOc1ccc(-c2nnc(SCC(=O)Nc3cc(F)ccc3C)[nH]2)cc1 [ACT-CK-067, 2-[5-(4-Ethoxy-phenyl)-4H-[1,2,4]triazol-3-ylsulfanyl]-N-(5-fluoro-2-methyl-phenyl)-acetamide]

IC50 (K562): 43 µM
IC50 (MDA-MB-231): 9 µM
Compound: CCCOc1ccc(-c2nnc(SCC(=O)Nc3cc(C)ccc3F)[nH]2)cc1 [ACT-CK-120, N-(2-Fluoro-5-methyl-phenyl)-2-[5-(4-propoxy-phenyl)-4H-[1,2,4]triazol-3-ylsulfanyl]-acetamide]

IC50 (K562): 23 µM
IC50 (MDA-MB-231): 16 µM
Compound: Cc1cc(C)cc(NC(=O)CSc2nnc(-c3cc4ccccc4[nH]3)[nH]2)c1 [ACT-CK-124, N-(3,5-Dimethyl-phenyl)-2-[5-(1H-indol-2-yl)-4H-[1,2,4]triazol-3-ylsulfanyl]-acetamide]

IC50 (K562): 34 µM
IC50 (MDA-MB-231): 149 µM
Compound: COc1ccc(-c2nnc(SCC(=O)Nc3ccc(C)cc3C)[nH]2)cc1 [ACT-CK-096]

IC50 (K562): 0.81 µM
IC50 (MDA-MB-231): 40.2 µM
Compound: CCOc1ccc(-c2nnc(SCC(=O)Nc3cc(C)ccc3F)[nH]2)cc1 [ACT-CK-071, 2-[5-(4-Ethoxy-phenyl)-4H-[1,2,4]triazol-3-ylsulfanyl]-N-(2-fluoro-5-methyl-phenyl)-acetamide]
